The results in this text go back to patent publication EP1268431B1 (Wyeth, priority 2000, dated 2001).

Values joined by “and” are separate entries in the source; they are usually repeats but may differ in a detail not shown here. Identical values can stand only once.

As a reminder, the IC50 is the concentration that gives 50% inhibition. One may read the inhibition as the drop in the measured response relative to a control, in per cent. Low values mean a weak effect, high ones a strong effect.

One assay deals with Rat2 fibroblasts stably transformed with a plasmid containing a CMV promotor controlled v-Src/Hu c-Src fusion gene. Nature of the assay: Anchorage Independent Src-transformed Fibroblast Proliferation Assay. Particulars: Rattus norvegicus, Rat2, 120 h, read-out: anch-indep src-tx fib IC50.
As to `COc1cc(Nc2c(C#N)cnc3cc(-c4ccc(CN5CCN(C)CC5)o4)ccc23)c(Cl)cc1Cl` [Example 41], the IC50 is 380 nM. As to `COc1cc(Nc2c(C#N)cnc3cc(-c4ccc(CN5CCOCC5)cn4)ccc23)c(Cl)cc1Cl` [Example 57, 4-(2,4-Dichloro-5-methoxyanilino)-7-[5-(4-morpholinylmethyl)-2-pyridinyl]-3-quinolinecarbonitrile], the IC50 was found to be 50 nM.

Staying with this assay, now noted: Rattus norvegicus, Rat2, 120 h, read-out: anch-indep src-tx fib IC50, suspension growth, MTS on Day 5.
In the case of `COc1cc(Nc2c(C#N)cnc3cc(-c4ccc(CCN5CCOCC5)cc4)ccc23)c(Cl)cc1Cl` [Example 27, 4-(2,4-Dichloro-5-methoxyanilino)-7-{4-[2-(4-morpholinyl)ethyl]phenyl}1-3-quinolinecarbonitrile], the IC50 came out at 1020 nM.

The same assay, now with this note: read-out: anch-indep src-tx fib IC50; suspension growth, MTS on Day 5.
As to “4-(2,4-dichloro-5-methoxyanilino)-7-{4-[(4-methyl-1-piperazinyl)]phenyl}-3-quinolinecarbonitrile [Example 218]”, the IC50 was 600 nM.

The target in a further assay is T1, c-Src (Homo sapiens, UniProt P12931).
T1 construct: purchased Upstate Biotechnologies
Nature of the assay: c-Src Kinase Assay (ELISA format). It is filed as biochemical.
Conditions: not given
On the procedure:
Inhibitors of Src (partially purified preparation purchased from Upstate Biotechnologies) tyrosine kinase activity are analyzed in an ELISA format. […] Horseradish Peroxidase (HRP)-conjugated anti-phosphotyrosine is used to detect phosphorylated peptide via a color reaction. Conditions recommended by the manufacturer are employed.
Reaction conditions: Five microliter aliquots of each compound prepared fresh at the time of the assay are added as a solution in 10mM HEPES pH 7.5, 10% DMSO to the reaction well. Thirty-five microliters of reaction mix containing Src, buffer and peptide/bovine serum albumin mix are added to the compound wells and incubated at 30°C for 10 minutes (reaction buffer: 50mM TrisHCl pH 7.5, 10mM MgCl2, 0.1mM EGTA, 0.5mM Na3VO4). The reaction is started by addition of 10 microliters of ATP, incubated at 30°C for 1 hour, and stopped by addition of 20 microliters of 0.5M EDTA. The reaction mixture with the phosphorylated peptide is then transferred to a streptavidin-coated microtiter plate (provided in the kit) and allowed to bind for 20 minutes. Unbound peptide and reaction mixture is decanted and the plate is washed with PBS six times. HRP-conjugated phosphotyrosine antibody supplied in the kit is incubated with the plate for one hour, then decanted. The plate is again washed with PBS six times.
Activity is determined as % inhibition as calculated by the formula: (1 - Abs/Abs(max)) x 100 = % inhibition.
On the technique in general: An ELISA detects its analyte on a solid surface through an enzyme-linked reagent.
Regarding “4-(2,4-Dichloro-5-methoxyanilino)-6-methoxy-7-(1H-pyrrol-1-yl)-3-quinolinecarbonitrile [Example 59]”, the IC50 is 12 nM and 15 nM. With `N#Cc1cnc2cc(-c3csc(CN4CCOCC4)c3)ccc2c1Nc1ccc(Cl)cc1F` [Example 1, 4-(4-Chloro-2-fluoroanilino)-7-[5-(4-morpholinylmethyl)-3-thienyl]-3-quinolinecarbonitrile], the IC50 stood at 25 nM. As to `N#Cc1cnc2cc(-c3ccc(-c4ccccn4)s3)ccc2c1Nc1ccc(Cl)cc1Cl` [Example 18, 4-(2,4-Dichloroanilino)-7-[5-(2-pyridinyl)-2-thienyl]-3-quinolinecarbonitrile], the IC50 was found to be 180 nM. Still for that read-out and setting: for `COc1cc(Nc2c(C#N)cnc3cc(-c4ccc(/C=C/CN5CCOCC5)s4)ccc23)c(Cl)cc1Cl` [Example 21, 4-(2,4-Dichloro-5-methoxyanilino)-7-{5-[(E)-3-(4-morpholinyl)-1-propenyl]-2-thienyl}-3-quinolinecarbonitrile] the value was 40 nM and 9 nM. Molecule `COc1cc(Nc2c(C#N)cnc3cc(-c4cccc(CN5CCOCC5)c4)ccc23)c(Cl)cc1Cl` [Example 26, 4-(2.4-Dichloro-5-methoxyanilino)-7-[3-(4-morpholinylmethyl)phenyl]-3-quinolinecarbonitrile] yielded an IC50 of 24 nM.

For the molecule `CCN1CCN(Cc2ccc(-c3ccc4c(Nc5cc(OC)c(Cl)cc5Cl)c(C#N)cnc4c3)cc2)CC1` [Example 30, 4-(2,4-Dichloro-5-methoxyanilino)-7-{4-[(4-ethyl-1-piperazinyl)methyl]phenyl}-3-quinolinecarbonitrile], the IC50 was 4.4 nM and 1.5 nM. Still for that read-out and setting: for `CCN1CCN(Cc2ccc(-c3cc4ncc(C#N)c(Nc5cc(OC)c(Cl)cc5Cl)c4cc3OC)cc2)CC1` [Example 31, 4-(2,4-Dichloro-5-methoxyanilino)-7-{4-[(4-ethyl-1-piperazinyl)methyl]phenyl}-6-methoxy-3-quinolinecarbonitrile] the value was 8.3 nM and 5.6 nM; for `COc1cc(Nc2c(C#N)cnc3cc(-c4ccc(CN5CCOCC5)c(CN5CCOCC5)c4)ccc23)c(Cl)cc1Cl` [Example 34, 7-[3,4-Bis(4-morpholinylmethyl)phenyl]-4-(2,4-dichloro-5-methoxyanilino)-3-quinolinecarbonitrile], 3 nM. Molecule `COc1cc(Nc2c(C#N)cnc3cc(-c4cccc(CN5CCOCC5)c4)c(OC)cc23)c(Cl)cc1Cl` [Example 39, 4-(2,4-Dichloro-5-methoxyanilino)-6-methoxy-7-[3-(4-morpholinylmethyl]phenyl}-3-quinolinecarbonitrile] had an IC50 of 220 nM.

Turning to `COc1cc(Nc2c(C#N)cnc3cc(-c4ccc(CCN5CCOCC5)cc4)c(OC)cc23)c(Cl)cc1Cl` [Example 40, 4-(2,4-Dichloro-5-methoxyanilino)-6-methoxy-7-{4-[2-(4-morpholinyl)ethyl]phenyl}-3-quinolinecarbonitrile], the half-maximal inhibitory concentration (IC50) came out at 10 nM.

`COc1cc(Nc2c(C#N)cnc3cc(-c4csc(C5OCCO5)c4)ccc23)c(Cl)cc1Cl` [Example 42, 4-(2,4-Dichloro-5-methoxyanilino)-7-[5-(1,3-dioxolan-2-yl)-3-thienyl]-3-quinolinecarbonitrile] yielded an IC50 of 2.7 nM. Regarding `COc1cc(Nc2c(C#N)cnc3cc(-c4csc(C=O)c4)ccc23)c(Cl)cc1Cl` [Example 43, 4-(2,4-Dichloro-5-methoxyanilino)-7-(5-formyl-3-thienyl)-3-quinolinecarbonitrile], the IC50 came out at 1.7 nM. Regarding `N#Cc1cnc2cc(-c3csc(C=O)c3)ccc2c1Nc1ccc(Cl)cc1Cl` [Example 44, 4-(2,4-Dichloroanilino)-7-(5-formyl-3-thienyl)-3-quinolinecarbonitrile], the IC50 was found to be 25 nM. Same read-out and setting: for `COc1cc(Nc2c(C#N)cnc3ccc(-c4csc(C=O)c4)cc23)c(Cl)cc1Cl` [Example 45, 4-(2,4-Dichloro-5-methoxyanilino)-6-(5-formyl-3-thienyl)-3-quinolinecarbonitrile] the value was 51 nM; for `COc1cc(Nc2c(C#N)cnc3ccc(-c4csc(CN5CCOCC5)c4)cc23)c(Cl)cc1Cl` [Example 50, 4-(2.4-Dichloro-5-methoxyanilino)-6-[5-(4-morpholinylmethyl)-3-thienyl]3-quinolinecarbonitrile], 111 nM; for `COc1cc(Nc2c(C#N)cnc3cc(-c4cc(CN5CCOCC5)cs4)ccc23)c(Cl)cc1Cl` [Example 68, 4-(2,4-Dichloro-5-methoxyanilino)-7-[4-(4-morpholinylmethyl)-2-thienyl]-3-quinolinecarbonitrile], 1.5 nM. On the same count and under the same terms, the same measure for `COc1cc(Nc2c(C#N)cnc3cc(-c4cnc(C=O)n4C)ccc23)c(Cl)cc1Cl` [Example 96, 4-(2,4-Dichloro-5-methoxyanilino)-7-(2-formyl-1-methyl-1H-imidazol-5-yl)-3-quinolinecarbonitrile]: 240 nM; for `COc1cc(Nc2c(C#N)cnc3cc(-c4ccc(CN5CC[S+]([O-])CC5)cc4)ccc23)c(Cl)cc1Cl` [Example 151, 4-[(2,4-dichloro-5-methoxyphenyl)amino]-7-{4-[(1-oxido-4-thiomorpholinyl)methyl]phenyl}-3-quinolinecarbonitrile]: 4.7 nM. On to `COc1cc(Nc2c(C#N)cnc3cc(-c4ccc(CN5CCC(C(=O)O)CC5)cn4)ccc23)c(Cl)cc1Cl` [Example 177, 1-{6-[3-cyano-4-(2,4-dichloro-5-methoxyphenylamino)-quinolin-7yl]-pyridin-3-ylmethyl}-piperidine-4-carboxylic acid], for which the IC50 is 0.69 nM. Regarding `COc1cc(Nc2c(C#N)cnc3cc(-c4ccc(N5CCOCC5)nc4)ccc23)c(Cl)cc1Cl` [Example 185, 4-(2,4-dichloro-5-methoxyanilino)-7-[6-(4-morpholinyl)-3-pyridinyl]-3-quinolinecarbonitrile], half-maximal inhibition (IC50) required 3.4 nM. Same read-out and setting: for `CCN1CCN(c2ccc(-c3ccc4c(Nc5cc(OC)c(Cl)cc5Cl)c(C#N)cnc4c3)cn2)CC1` [Example 197, 4-(2,4-dichloro-5-methoxyanilino)-7-[6-(4-ethyl-1-piperazinyl)-3-pyridinyl]-3-quinolinecarbonitrile] the value was 4.4 nM; for `COc1cc(Nc2c(C#N)cnc3cc(-c4ccc(N5CCN(C)CC5)nc4)ccc23)c(Cl)cc1Cl` [Example 198, 4-(2,4-dichloro-5-methoxyanilino)-7-[6-(4-methyl-1-piperazinyl)-3-pyridinyl]-3-quinolinecarbonitrile], 1.9 nM; for `COc1cc(Nc2c(C#N)cnc3cc(-c4cnc(CN5CCOCC5)n4C)ccc23)c(Cl)cc1Cl` [Example 226, 4-(2,4-dichloro-5-methoxyanilino)-7-[1-methyl-2-(4-morpholinylmethyl)-1H-imidazol-5-yl]-3-quinolinecarbonitrile], 31 nM. In turn, `COc1cc(Nc2c(C#N)cnc3cc(-c4cnc(CN5CCN(C)CC5)n4C)ccc23)c(Cl)cc1Cl` [Example 227, 4-(2,4-dichloro-5-methoxyanilino)-7-{1-methyl-2-[(4-methyl-1-piperazinyl)methyl]-1H-imidazol-5-yl}-3-quinolinecarbonitrile] yielded an IC50 of 25 nM. On to `COc1cc(Nc2c(C#N)cnc3cc(-c4cnc(CN5CCN(C)CC5)n4C)c(OC)cc23)c(Cl)cc1Cl` [Example 233, 4-(2,4-dichloro-5-methoxyanilino)-6-methoxy-7-{1-methyl-2-[(4-methyl-1-piperazinyl)methyl]-1H-imidazol-5-yl}-3-quinolinecarbonitrile], for which the IC50 amounted to 28 nM.

Staying with this assay, now noted: at 1 µM.
Molecule `N#Cc1cnc2cc(C#CCO)ccc2c1Nc1ccc(Cl)cc1Cl` [Example 14, 4-(2,4-Dichloroanilino)-7-(3-hydroxy-1-propynyl)-3-quinolinecarbonitrile] displayed an inhibition at 1 µM of 40%.

Staying with this assay, now noted: at 10 µM.
`COc1cc(Nc2c(C#N)cnc3cc(-c4cccc([N+](=O)[O-])c4)ccc23)c(Cl)cc1Cl` [Example 122, 4-(2,4-Dichloro-5-methoxyanilino)-7-(3-nitrophenyl)-3-guinolinecarbonitrile] had an inhibition at 10 µM of 44%.
